# Results reported in ChEMBL document CHEMBL1201862, “PubChem BioAssay data set” (2004).
# Activity calls are given as the source filed them.
# What was measured:
# [1] = target: DNA dC->dU-editing enzyme APOBEC-3A (Homo sapiens, UniProt P31941); assay: Dose Response confirmation of small molecule APOBEC3A DNA Deaminase Inhibitors via a fluorescence-based single-stranded DNA deaminase assay. [Related pubchem assays (depositor defined):AID493011, AID493024]; assay type: functional
# [2] = target: DNA dC->dU-editing enzyme APOBEC-3G (Homo sapiens, UniProt Q9HC16); assay type: functional;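 note: Dose-response counterscreen measuring inhibition of APOBEC3G DNA deaminase activity, run while confirming APOBEC3A inhibitors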
# Beta-galactosidase = Beta-galactosidase (Escherichia coli, UniProt Q8VNN2); assay: Dose response counterscreen for EBI2 assay utilizing the enzyme, b-galactosidase.; assay type: functional
# [3] = Trypanosoma cruzi growth suppression in host cells – NIH3T3 host cells, beta-gal luminescence, confirmation (AID 2044); assay type: functional, cell-based;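 note: intracellular parasites grown in NIH/3T3 mouse fibroblasts as host cells; luminescent beta-galactosidase reporter signal from transgenic T. cruzi replicating inside host cells; inhibitors lower the luminescence signal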
# [4] = NIH3T3 cell viability loss – ATP luminescence, mouse fibroblasts, counter-screen, dose response (AID 2010); assay type: functional, cell-based;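 note: cells exposed to compound for about 90 hours before reading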
# INS1 = assay: INS-1E survival protection against cytokine death – cell-based, luminescence, retest, dose response (AID 449756); assay type: functional; settings: Rattus norvegicus;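 note: cell death triggered by IL-1 beta plus TNF-alpha plus IFN-gamma mixture; protective hits raise ATP signal compared with cytokine alone wells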
# [5] = microbe, parasite or virus in culture; assay type: functional; settings: Mycobacterium tuberculosis
# [6] = target: T1, DNA repair protein RAD52 homolog (Homo sapiens, UniProt P43351); assay type: functional, biochemical
# T1 sequence (P43351 whole entry): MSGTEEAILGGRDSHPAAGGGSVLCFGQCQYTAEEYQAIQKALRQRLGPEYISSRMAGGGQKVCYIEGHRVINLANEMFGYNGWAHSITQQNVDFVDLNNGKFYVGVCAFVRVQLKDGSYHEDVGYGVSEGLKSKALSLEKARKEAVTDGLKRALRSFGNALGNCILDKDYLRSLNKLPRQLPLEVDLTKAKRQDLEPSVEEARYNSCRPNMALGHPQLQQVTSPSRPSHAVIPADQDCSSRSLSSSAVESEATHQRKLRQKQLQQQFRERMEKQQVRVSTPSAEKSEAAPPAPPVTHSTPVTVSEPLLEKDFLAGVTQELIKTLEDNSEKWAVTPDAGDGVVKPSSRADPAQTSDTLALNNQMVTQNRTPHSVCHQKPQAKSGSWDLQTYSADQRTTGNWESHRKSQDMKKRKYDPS
# Tumor necrosis factor = Tumor necrosis factor (Homo sapiens, UniProt P01375); assay: analog potency on TNFa NF-kB signaling – cell-based, revised, SAR follow-up (AID 2337); assay type: functional
# [7] = target: T2, Nucleotide-binding oligomerization domain-containing protein 1 (Homo sapiens, UniProt Q9Y239); assay: blockers of NOD1 pathway activity – revised, SAR follow-up (AID 2333); assay type: functional
# T2 sequence (Q9Y239 whole entry): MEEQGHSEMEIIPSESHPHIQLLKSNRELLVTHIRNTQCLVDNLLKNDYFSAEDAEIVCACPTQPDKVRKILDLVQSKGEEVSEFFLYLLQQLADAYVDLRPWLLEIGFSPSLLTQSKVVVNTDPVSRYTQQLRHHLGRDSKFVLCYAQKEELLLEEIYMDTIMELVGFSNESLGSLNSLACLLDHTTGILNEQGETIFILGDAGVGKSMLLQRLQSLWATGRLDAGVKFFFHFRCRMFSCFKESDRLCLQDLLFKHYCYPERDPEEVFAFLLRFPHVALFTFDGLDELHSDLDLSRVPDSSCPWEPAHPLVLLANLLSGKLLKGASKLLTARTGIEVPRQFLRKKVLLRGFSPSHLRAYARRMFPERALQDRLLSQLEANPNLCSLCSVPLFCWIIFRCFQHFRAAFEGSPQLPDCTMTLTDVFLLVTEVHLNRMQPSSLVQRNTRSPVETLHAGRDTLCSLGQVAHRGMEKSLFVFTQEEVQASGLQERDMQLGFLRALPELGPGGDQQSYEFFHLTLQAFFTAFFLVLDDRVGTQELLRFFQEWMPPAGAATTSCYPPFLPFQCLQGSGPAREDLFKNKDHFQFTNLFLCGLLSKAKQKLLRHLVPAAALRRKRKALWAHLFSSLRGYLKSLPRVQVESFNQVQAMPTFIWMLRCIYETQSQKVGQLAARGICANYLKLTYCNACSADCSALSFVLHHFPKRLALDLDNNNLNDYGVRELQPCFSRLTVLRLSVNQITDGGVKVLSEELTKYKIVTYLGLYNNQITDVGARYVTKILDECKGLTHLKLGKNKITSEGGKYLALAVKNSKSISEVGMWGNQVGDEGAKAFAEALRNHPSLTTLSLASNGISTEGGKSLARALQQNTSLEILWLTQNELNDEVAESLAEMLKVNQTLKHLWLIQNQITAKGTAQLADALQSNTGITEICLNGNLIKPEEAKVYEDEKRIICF
# [8] = HEK-293T viability loss after treatment – luminescence, T-cell screen hits, cytotoxicity control for TCR NF-kB inhibitor project, dose response (AID 489026); assay type: functional, cell-based;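 note: cells exposed to compound about 14 hours before the viability readout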
# HEK293 = assay: cells; settings: Homo sapiens;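 note: cells exposed to compound for 14 hours overnight before viability readout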
# Protein skinhead-1 = target: T3, Protein skinhead-1 (Caenorhabditis elegans, UniProt P34707); assay type: functional
# T3 sequence (P34707 whole entry): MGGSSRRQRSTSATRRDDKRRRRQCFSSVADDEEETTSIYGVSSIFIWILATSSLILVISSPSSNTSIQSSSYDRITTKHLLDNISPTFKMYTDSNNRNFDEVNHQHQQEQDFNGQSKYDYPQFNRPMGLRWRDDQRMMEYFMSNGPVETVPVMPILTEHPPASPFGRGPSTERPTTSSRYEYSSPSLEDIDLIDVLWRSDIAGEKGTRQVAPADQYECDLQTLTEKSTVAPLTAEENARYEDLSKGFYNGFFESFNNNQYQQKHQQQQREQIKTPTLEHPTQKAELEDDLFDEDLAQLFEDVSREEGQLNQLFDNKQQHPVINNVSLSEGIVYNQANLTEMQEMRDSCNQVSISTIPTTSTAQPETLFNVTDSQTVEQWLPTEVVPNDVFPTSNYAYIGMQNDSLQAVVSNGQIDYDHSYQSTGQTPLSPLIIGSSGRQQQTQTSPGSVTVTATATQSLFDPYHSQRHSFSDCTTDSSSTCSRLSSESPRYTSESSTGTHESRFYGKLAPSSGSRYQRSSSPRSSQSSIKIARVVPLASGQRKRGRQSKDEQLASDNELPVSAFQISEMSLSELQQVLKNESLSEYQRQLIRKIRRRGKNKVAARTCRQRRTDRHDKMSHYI
# [9] = target: T4, Corticotropin-releasing factor receptor 2/Corticotropin-releasing factor-binding protein (Homo sapiens, UniProt P24387+Q13324); assay: Dose Response confirmation of uHTS hits for small molecule antagonists of the CRF-binding protein and CRF-R2 receptor complex.; assay type: functional; settings: read-out: IC50_Mean
# T4 sequence (Q13324 whole entry): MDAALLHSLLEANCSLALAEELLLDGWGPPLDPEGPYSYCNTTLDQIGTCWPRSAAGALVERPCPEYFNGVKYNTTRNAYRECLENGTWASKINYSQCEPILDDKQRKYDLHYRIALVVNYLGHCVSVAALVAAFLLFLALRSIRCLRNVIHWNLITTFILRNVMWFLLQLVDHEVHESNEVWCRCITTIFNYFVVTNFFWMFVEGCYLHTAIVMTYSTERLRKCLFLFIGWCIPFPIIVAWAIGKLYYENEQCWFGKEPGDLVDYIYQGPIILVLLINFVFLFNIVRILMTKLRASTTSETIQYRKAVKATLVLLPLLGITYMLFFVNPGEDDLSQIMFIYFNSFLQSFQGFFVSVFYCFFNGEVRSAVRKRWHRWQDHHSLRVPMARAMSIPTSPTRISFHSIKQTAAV
# T4 sequence (P24387 whole entry): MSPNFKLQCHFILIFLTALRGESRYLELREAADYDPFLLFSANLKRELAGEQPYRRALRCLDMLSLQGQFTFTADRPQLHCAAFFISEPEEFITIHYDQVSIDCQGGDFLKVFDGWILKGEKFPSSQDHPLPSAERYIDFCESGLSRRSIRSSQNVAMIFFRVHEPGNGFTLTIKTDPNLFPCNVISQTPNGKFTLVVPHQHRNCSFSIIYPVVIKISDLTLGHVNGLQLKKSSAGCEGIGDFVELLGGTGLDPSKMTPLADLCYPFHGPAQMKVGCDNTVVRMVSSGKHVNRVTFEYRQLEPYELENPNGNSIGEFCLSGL
# [10] = target: T4, Corticotropin-releasing factor receptor 2/Corticotropin-releasing factor-binding protein; assay: activators of CRF receptor 2 with binding protein – uHTS hits, confirmation (AID 602473); assay type: functional; settings: read-out: EC50_Mean
# [11] = tested on: Streptococcus sp. 'group A'; assay: Streptococcus pyogenes SK(-)GAS viability under kanamycin – luminescence, BacTiterGlo, confirmation, counter-screen for streptokinase expression inhibitor project, dose response (AID 1900); assay type: functional, organism-based
# Streptokinase A = target: T5, Streptokinase A (Streptococcus pyogenes serotype M1, UniProt P10520); assay: viability-normalized secreted streptokinase activity reduction – plasminogen activation absorbance, OD405, dose response (AID 1914); assay type: functional, Streptococcus pyogenes M1 GAS;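 note: secreted streptokinase activity via plasminogen activation per viability signal from cell pellet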
# T5 sequence (P10520 whole entry): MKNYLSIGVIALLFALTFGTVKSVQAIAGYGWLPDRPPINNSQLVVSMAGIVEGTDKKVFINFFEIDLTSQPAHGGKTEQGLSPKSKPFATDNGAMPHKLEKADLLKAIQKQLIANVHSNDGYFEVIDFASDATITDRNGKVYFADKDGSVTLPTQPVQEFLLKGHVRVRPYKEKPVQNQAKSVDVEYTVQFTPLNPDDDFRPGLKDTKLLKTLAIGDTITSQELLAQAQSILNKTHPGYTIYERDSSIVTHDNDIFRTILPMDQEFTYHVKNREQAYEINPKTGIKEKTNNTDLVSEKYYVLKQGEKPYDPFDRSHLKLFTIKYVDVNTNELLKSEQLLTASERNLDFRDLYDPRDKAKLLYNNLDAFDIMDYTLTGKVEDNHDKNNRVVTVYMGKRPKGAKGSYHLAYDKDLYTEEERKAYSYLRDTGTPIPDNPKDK
# Streptococcus = assay: GAS UMAA2166 growth inhibition – luminescence, BacTiterGlo, counter-screen for streptokinase expression inhibitor project, dose response (AID 1915); assay type: functional, organism-based;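 note: potency for reduction of bacterial viability or growth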
# [12] = blockers of HIV-1 envelope-mediated cell-cell fusion – cherry-pick, dose response (AID 652057); assay type: functional, cell-based
# [13] = viability loss in CEM21 cells – cell-based, CellTiter-Glo luminescence, cherry-picked, cytotoxicity control for viral fusion inhibitor project, dose response (AID 652042); assay type: functional;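 note: potency for signal decrease meaning cytotoxicity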
# [14] = blockers of HIV-1 ZM109 envelope-driven cell-cell fusion – HeLa effector, CEM target cells, luciferase, cherry-pick, dose response (AID 652058); assay type: functional, cell-based;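 note: luciferase signal from HIV-1 Env mediated cell-cell fusion of effector and target cells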
# [15] = off-target signal loss in HeLa-CEM21 co-culture – HeLa F-luc CTL cells, cherry-picked, counter-screen for HIV-1 Env fusion inhibitor project, dose response (AID 652040); assay type: functional, cell-based;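 note: potency for signal decrease marking cytotoxic or nonspecific inhibition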
# [16] = HIV-1 AD8 envelope cell-cell fusion blockers – cherry-pick, dose response (AID 652062); assay type: functional, cell-based;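 note: luciferase signal from cell-cell fusion driven by HIV-1 clade B AD8 Env; potency is for inhibitors of fusion seen as a drop in luminescence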
# Sequence of Beta-galactosidase (Q8VNN2 whole entry): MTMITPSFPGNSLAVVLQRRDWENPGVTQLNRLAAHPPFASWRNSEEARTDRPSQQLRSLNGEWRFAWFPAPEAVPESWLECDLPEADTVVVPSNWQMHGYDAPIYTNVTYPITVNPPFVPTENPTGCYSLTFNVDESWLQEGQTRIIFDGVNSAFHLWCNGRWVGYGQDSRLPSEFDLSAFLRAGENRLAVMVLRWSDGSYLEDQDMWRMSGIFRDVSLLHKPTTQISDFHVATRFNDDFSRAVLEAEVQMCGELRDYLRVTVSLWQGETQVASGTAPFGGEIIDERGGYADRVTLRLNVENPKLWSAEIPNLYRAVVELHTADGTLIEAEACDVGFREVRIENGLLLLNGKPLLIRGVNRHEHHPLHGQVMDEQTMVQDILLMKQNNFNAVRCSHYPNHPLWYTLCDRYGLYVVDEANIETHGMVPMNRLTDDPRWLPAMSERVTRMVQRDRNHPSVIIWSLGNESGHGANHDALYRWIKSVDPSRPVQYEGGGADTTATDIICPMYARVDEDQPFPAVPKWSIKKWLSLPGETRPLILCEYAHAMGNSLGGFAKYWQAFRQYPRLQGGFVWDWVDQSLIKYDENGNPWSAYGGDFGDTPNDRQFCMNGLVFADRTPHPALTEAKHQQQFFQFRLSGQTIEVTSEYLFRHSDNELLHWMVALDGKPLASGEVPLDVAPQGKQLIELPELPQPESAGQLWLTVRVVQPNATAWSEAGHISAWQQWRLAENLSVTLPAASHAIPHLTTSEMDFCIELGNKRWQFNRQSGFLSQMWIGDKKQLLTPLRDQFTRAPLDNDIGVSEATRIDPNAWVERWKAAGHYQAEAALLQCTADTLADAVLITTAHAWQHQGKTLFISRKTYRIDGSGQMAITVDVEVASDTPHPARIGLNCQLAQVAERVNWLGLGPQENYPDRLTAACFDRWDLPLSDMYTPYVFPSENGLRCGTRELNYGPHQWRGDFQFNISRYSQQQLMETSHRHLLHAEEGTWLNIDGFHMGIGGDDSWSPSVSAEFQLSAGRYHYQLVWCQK
# Sequence of DNA dC->dU-editing enzyme APOBEC-3G (Q9HC16 whole entry): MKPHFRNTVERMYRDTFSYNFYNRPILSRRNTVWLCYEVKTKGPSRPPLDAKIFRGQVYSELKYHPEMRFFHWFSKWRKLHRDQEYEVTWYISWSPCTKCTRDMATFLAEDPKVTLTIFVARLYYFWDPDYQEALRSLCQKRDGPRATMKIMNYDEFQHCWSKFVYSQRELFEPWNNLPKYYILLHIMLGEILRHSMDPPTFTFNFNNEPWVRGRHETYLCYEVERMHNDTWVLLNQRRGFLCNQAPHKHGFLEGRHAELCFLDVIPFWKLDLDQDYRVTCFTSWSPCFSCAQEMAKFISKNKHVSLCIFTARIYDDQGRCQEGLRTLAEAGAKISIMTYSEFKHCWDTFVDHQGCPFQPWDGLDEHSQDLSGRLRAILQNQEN
# Sequence of DNA dC->dU-editing enzyme APOBEC-3A (P31941 whole entry): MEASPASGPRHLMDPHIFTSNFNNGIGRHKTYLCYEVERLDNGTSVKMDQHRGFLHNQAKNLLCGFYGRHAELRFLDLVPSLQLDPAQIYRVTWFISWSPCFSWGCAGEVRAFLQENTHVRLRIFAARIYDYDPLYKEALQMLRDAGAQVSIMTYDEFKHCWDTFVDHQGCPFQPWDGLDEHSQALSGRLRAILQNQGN
# Sequence of Tumor necrosis factor (P01375 whole entry, the tested form may be a part): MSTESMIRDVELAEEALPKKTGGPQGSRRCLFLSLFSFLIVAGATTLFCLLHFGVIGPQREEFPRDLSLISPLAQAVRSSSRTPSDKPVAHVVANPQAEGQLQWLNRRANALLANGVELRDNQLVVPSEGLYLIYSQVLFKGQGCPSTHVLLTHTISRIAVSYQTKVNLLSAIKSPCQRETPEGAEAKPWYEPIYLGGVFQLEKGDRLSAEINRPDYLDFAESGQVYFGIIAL
smiles,measurement,setting,value
CN(Cc1ccccc1)C(=O)c1ncn(C)c1C(=O)N(C)Cc1ccccc1,IC50,[1],3.15 µM (active)
same,IC50,[2],> 100 µM (inactive)
Cc1sc2nc(C3CC3)nc(N3CCN(C(=O)c4ccc(Cl)cc4)CC3)c2c1C,IC50,Beta-galactosidase,> 80 µM (inactive)
CC1(C)CC(N2CCN(c3ccccc3)CC2)=CC(=[N+]2CCCC2)C1,EC50,[3],0.263 µM (active)
same,EC50,[4],> 60 µM (not active)
same,IC50,[1],2.15 µM (active)
same,IC50,[2],2.24 µM (active)
same,AC50,INS1,1.81 µM (active)
CC(C)(C)c1ccc(C2C3=C(CCCC3=O)N=C3C2=C(O)c2ccccc23)cc1 (stereo unspecified),CC50,[5],> 40 µM (active)
Cn1c(C(=O)NCCCN2CCCCCC2)cc2c(=O)n(C)c3ccccc3c21,AC50,[6],12.4 µM (active)
CCOC(=O)c1cnc(Nc2nc3ccccc3o2)nc1CSC(=S)N(CC)CC,EC50,[3],0.17 µM (active)
same,CC50,[5],28 µM (active)
same,EC50,[4],> 60 µM (not active)
CC(=O)c1ccc(N2CCN(S(=O)(=O)c3ccc4c(c3)CC(C)N4C(=O)C3CC3)CC2)cc1 (stereo unspecified),IC50,Tumor necrosis factor,3.18 µM (active)
same,IC50,[7],8.77 µM (active)
same,IC50,[8],> 80 µM (inactive)
same,IC50,HEK293,> 20 µM (inactive)
COc1ccc2[nH]c(=O)c(CN(C(=O)c3ccco3)C(C)C)cc2c1,IC50,[1],6.26 µM (active)
same,IC50,[2],6.32 µM (active)
Cc1ccc(/C=C2/SC(Nc3ccc(F)cc3)=NC2=O)s1,IC50,[1],3.22 µM (active)
same,IC50,[2],7.58 µM (active)
same,IC50,Protein skinhead-1,> 100 µM (inactive)
CCN1C(NCCOC)=N[C@@H](c2ccccc2)[C@H](C(=O)OC)[C@H]1C,IC50,[1],4.47 µM (active)
same,IC50,[2],4.28 µM (active)
CCOC(=O)N1CCN(C(=O)c2cc3c(O)nc4ccccc4c3s2)CC1,IC50,Beta-galactosidase,> 80 µM (inactive)
CCc1ccc(CN(C)C(=O)c2cc(=O)c3ccccc3o2)cc1,IC50,Beta-galactosidase,> 80 µM (inactive)
O=C(COc1ccc2ccccc2c1)N1CCN(C(=O)c2ccc([N+](=O)[O-])cc2)CC1,IC50,[9],> 47.1 µM (inactive)
same,EC50,[10],> 53 µM (inactive)
same,IC50,Beta-galactosidase,> 80 µM (inactive)
CC(=O)Nc1ccc(CNc2nc(NCCN(C)C)nc3cc(-c4ccccc4)sc23)cc1,AC50,[6],1.37 µM (active)
CCOC(=O)N(C)c1c(CC)nc2c(OCc3ccc(Cl)cc3Cl)cccn12,IC50,Beta-galactosidase,121 µM (inactive)
CN1CC(c2ccc(Cl)c(Cl)c2)[C@@]2(COc3ccccc3C2=O)[C@@]12C(=O)Nc1ccccc12 (stereo partly specified),EC50,[11],2.96 µM (active)
same,EC50,Streptokinase A,1.55 µM (active)
same,EC50,Streptococcus,> 150 µM (not active)
same,AC50,[12],9.06 µM (active)
same,AC50,[13],45.7 µM (active)
same,AC50,[14],9.1 µM (active)
same,AC50,[15],14.7 µM (active)
same,AC50,[16],31.3 µM (active)
CC(=O)Nc1ccc(Nc2cc(C)nc(Nc3ccc(NC(C)=O)cc3)n2)cc1,IC50,[1],11 µM (active)
same,IC50,[2],16.4 µM (active)
